The values that follow come from patent US6469027B1, “N-methyl-D-aspartate (NMDA) receptor blockers for the prevention of atherosclerosis” (The Board of Regents of the University of Nebraska, priority 1996, dated 2002).

Entries after “also recorded” stand apart in the source; their conditions may differ.

Data set [1] concerns c-myb. The data set is described as follows: c-myb expression in N-VSMC (RT-PCR, immunoprecipitation and western blot). The data set is classed as cell-based, chicken. Here is the method:
FIGS. 3A, 3B and 3C are RNA blot analyses of c-fos and c-myb mRNA isolated from N-VSMC cultures. Cultures were incubated in the absence and presence of 200μM H[cys] for 0, (lane 1); 15 min, (lane 2); 30 min, (lane 3); 45 min, (lane 4) and 60 min, (lane 5); and analyzed for c-fos expression. In FIG. 3B, the time course of c-myb MRNA induction in the presence of 200μM H[cys] for 0 h, (lane 1); 8 h, (lane 2); 16 h, (lane 3); 24 h, (lane 4). The c-fos transcripts were analyzed by northern blot and normalized to β actin expression. The amount of c-myb mRNA levels were normalized to estrogen receptor (ER) transcripts as determined by RT-PCR. […] The amount of c-myb mRNA levels were normalized to estrogen receptor (ER) transcripts as determined by RT-PCR. The amount of specific radiolabeling in the autoradiograph was quantified by scanning densitometry. The size of the c-Myb protein is 75 kilodaltons. The 75 kilodalton band is defined as c-Myb because immunoprecipitation of this protein was not detected in the presence of synthetic polypeptide [[…] encoded by sequences 1080-1133].
FIG. 4 is a graph illustrating the analysis of c-myb synthesis in response to NMDA receptor antagonist, Mk-801 and CGS19755. Immunoprecipitation and western blotting of radiolabeled c-Myb from N-VSMC treated with 200μMH[cys] in the presence and absence of 50 μM Mk-801 or 1 mM CGS19755. Cell cultures were treated with and without H[cys] for 24 hours, extracts were immunoprecipitated with anti c-myb IgG and samples were separated by SDS-PAGE gels and western blotted. The amount of specific radiolabeling in the autoradiograph was quantified by scanning densitometry. The size of the c-Myb protein is 75 kilodaltons. The 75 kilodalton band is defined as c-Myb because immunoprecipitation of this protein was not detected in the presence of synthetic polypeptide [I13-[…] encoded by sequences 1080-1133].
RNA Blot Analysis: Total RNA was isolated from VSMC derived from thoracic and abdominal aorta by homogenization, and lysis with guanidinium isothiocyanate was followed by phenol-chloroform extraction. Ten micrograms of total RNA per lane was separated in a 1.5% agarose-formaldehyde gel, and the RNA was transferred by capillary transfer to a 0.45 μm nylon membrane. Filters were hybridized as previously with cDNAs labeled with [^32P]deoxycytidine5′-triphosphate to specific activities of approximately 2×10^9 cpm/μg using a random prime labeling kit (Boehringer Mannheim Biochemicals, Indianapolis, Ind.). The probes included chicken c-fos, Bactin, estrogen receptor (ER) and c myb.
Reverse Transcriptase-Polymerase Chain Reaction: Reverse transcription of 4 to 10,000 nanograms (ng) of RNA using 10 picomoles (pm) of hexamer primers was performed for 90 minutes (min) at 37° C. using 200 units superscript reverse transcriptase (Gibco BRL), in 50 mM Tris, pH, 8.2, 75 Mm KC1, 3 mM MgCl2, 10 mM dithiothreitol (DTT), 1 unit/μ1 RNasin (Promega), and 1 mM each of DATP, dCTP, dGTP, and dTTP. The samples were heated at 95° C. for 5 min to terminate the reverse transcription. The resulting cDNA was treated with 1 unit of […] at 37° C. for 20 min. A 5% fraction of the cDNA was subjected to PCR using c-myb upstream (5′ggTCCTTTgAAgATgCTgCC3′) and downstream(5′[…]gAgTCCgggTTg3′) primers; estrogen receptor (ER) (5′ggACTgCCAgCTgCCgATCTT3′) and (5′CTCACgAATgTggCgCCT3′) primers; β actin (5′AAgAggTAATCCTgACCCCTgAA3′) and (5′ACCCTgACCATCAgggAgTTCA3′) primers. PCR was performed using 0.25 μM of each primer, 3 μM cDNA, 0.2 mM of each deoxynucleotide triphosphate, 75 mM KC1, 1.5 mM MgCl2 and 0.5 unit Taq polymerase (Perkin Elmer; Cetus) in 10 mM Tris-HC1, pH 8.3 with total volume of 100 μl. […] PCR products were analyzed by electrophoresis in 1.5% agarose gels stained with ethidium bromide. PCR amplifications of all target templates and controls were run in parallel or on the same sample. […]
In general terms: A western blot detects proteins with antibodies after separation by electrophoresis.

Data set [2] has as its system mouse aortic smooth muscle cells. The data set is described as follows: 3H thymidine uptake / mitogenic effect in mouse aortic smooth muscle cells. The data set is classed as cell-based. Here is the method:
The mitogenic and other effects of growth factors are exaggerated in late embryonic or fetal smooth muscle cells, and cells in the late fetal state provide a high contrast picture of their subsequent, post-natal, responses. To take advantage of this effect, late fetal C57BL/6×129 mice were obtained and aortic smooth muscle cell cultures were prepared according to the inventors' previously published methods set forth above. These cells were treated with a series of Hcy dilutions (10 μM-100 μM) as described above. […] Subsequently, the fetal mouse smooth muscle cells were treated with a number of variations of the incubation medium containing the Hcy. In no case did Hcy produce a measurable mitogenic effect. […] Aortic smooth muscle cells were obtained from mice of this strain that were 3-6 months old, and were treated with various concentrations of Hcy.

Data set [3] relates to rat liver cells. The settings on record: cited from earlier work.
In data set [4] the test system is N-VSMC. The data set is described as follows: Cell proliferation (cell number) of N-VSMC cultures. The data set is classed as cell-based, chicken. Conditions: 0.01 to 100 μM for 36 h.
The subject of data set [5] is human aortic smooth muscle cells. The data set is described as follows: 3H thymidine uptake in human aortic smooth muscle cells. The data set is classed as cell-based. As for the experimental part:
FIG. 13 is a graph illustrating 3 H thymidine uptake of human aortic smooth muscle cells in response to differing concentrations of Hcy.
Smooth muscle cell cultures were established from samples of thoracic aorta obtained during organ transplantation. Confluent early passage cells were growth arrested by serum starvation, then they were treated with Hcy in serum free (defined) medium.

Data set [6] has as its system Thoracic aorta VSMC from E14 embryos. Description: Intracellular Ca++ by Fura 2 fluorometry. The data set is classed as cell-based, chicken. Conditions: 200 μM Hcy. Here is the method:
FIGS. 8A and 8B are graphs illustrating E14 embryonic neural crest-derived response to Hcy. (A) Normal E14 cell response; (B) Ca++ influx is prevented by 15 min pretreatment with NMDA receptor blocker MK801, which acts at the NMDA receptor calcium channel.
The most common signaling device for mitosis is calcium influx. Therefore, the inventors measured the change in intracellular Ca^++ by Fura 2 fluorometry. Thoracic aorta VSMC from E14 embryos were harvested and grown on coverslips using the procedure set forth above. Fura 2 was added during 45 minutes at room temperature. Then the cover slips were placed in a photometer. Fura 2 was excited at 350 and 380 nm with a xenon light source, appropriate monochromators and a chopper (Deltascan, Princeton). Emitted signals passed through a 510±20 band pass filter. When the cells were treated with a solution of 200 μM Hcy, there was a rapid flux of Ca^++ that reached a plateau in about 50 seconds, and remained elevated for the duration of the 500 sec measurement interval as shown in FIGS. 8A and 8B. Similar results have been found with adult rabbit aortic smooth muscle cells, as set forth below.

Take `N[C@@H](CCS)C(=O)O` [homocysteine]: the “c-myb mRNA transcripts induced” value in data set [1] (200 μM homocysteine) stood at 6 fold. Also, the cMyb protein result in data set [1] (30 and 100 μM) was “dose dependent increase”. For the same compound, the c-myb induction entry in data set [1] (neural crest derived smooth muscle cells) is given as “induced”. In data set [2] (adult C57Bl/6 mice 3-6 months old, various concentrations, listed as Hcy), the mitogenic effect result was “no mitogenic effect; also recorded: No mitogenic result”. The 3H thymidine uptake result in data set [2] (late fetal C57BL/6×129 mice, 10 μM-100 μM) is on record as “no enhancement”. Also, the “protein bound H[cys] in the microsomal fraction” value in data set [3] is recorded as 50%. Further, the “cell number in the absence of serum” value in data set [4] is “no increase in cell number”. In addition, in data set [5] (human cell cultures of N-VSMC (data not shown)), the “effect on DNA synthesis” value is “observed”. In data set [5] (thoracic aorta cells, serum free medium), the “uptake of 3H thymidine” value is on record as “significant, dose-responsive increase”. For the same compound, the “time for Ca++ flux to reach a plateau” value in data set [6] is “about 50 seconds”.
